For assay [1], the target named is T1, CRBN (Homo sapiens, UniProt Q96SW2). The assay is described as follows: CRBN displacement assay Format 1 (fluorescence polarization, BodipyFL-lenalidomide probe Compound HH). In kind it is binding. Put shortly: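 Compound and CRBN protein (nominally 100 nM) were preincubated for 45 min at room temperature before a 5 nM BodipyFL-lenalidomide probe started competition, with 0.9% DMSO final. Polarization was measured 45 min later, exciting at 485 nm and reading 520 nm. AC50 came from a logistic fit with Hill coefficient.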

The target in assay [2] is T2, BTK (Homo sapiens, UniProt Q06187).
T2 construct: the BTK open reading frame (ORF) was first shuttled from a pcDNA-DEST40-BTK vector; expressed in transfected cells; host or cells: HEK293A (Invitrogen R70507), lentiviral transduction, blasticidin selection
The assay is described as follows: BTK-GFP protein abundance flow cytometry assay in HEK293A. The format is cell-based. Conditions: 24 h; for BTK degradation Amax: % protein remaining at the concentration at which maximum degradation is seen, HEK293A; for DC50: concentration at which 50% maximal degradation was observed, HEK293A BTK-GFP sensor cells. The procedure, abridged:
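HEK293A cells stably expressing bicistronic BTK-GFP-iresRFP were treated 24 h at 37° C with 10-point 1:3 dilutions from 10 μM, DMSO at 0.1%. GFP was read by flow cytometry as median of 5,000 single cells, scaled between RFP-only cells (0%) and DMSO controls (100%). DC50 = concentration at 50% degradation; Amax = % protein remaining at maximal degradation.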

Assay [3] addresses T1, CRBN. The assay can be described thus: CRBN displacement assay Format 2a (fluorescence polarization, 1536-well, Envision reader). The format is binding. The procedure, abridged: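 Competition format: compound first equilibrated with CRBN protein (nominally 40 nM) for 45 min at RT, then challenged 45 min with 5 nM BodipyFL-conjugated lenalidomide tracer. FP measured at 480 nm excitation/535 nm emission; AC50 derived by four-parameter logistic fit of %-saturation.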

The target in assay [4] is T1, CRBN. The assay can be described thus: CRBN displacement assay Format 2b (as 2a, quadruplicate, PHERAstar reader). The format is binding. On the procedure:
Assay conditions are similar to Format 2a with the exception of • a. The assay run in quadruplicate • b. PHERAstar reader (BMG Labtech, Offenburg, Germany) was used instead of an Envision reader • c. For the determination of AC50 values, assays were performed at room temperature in 1536-well plates with a total assay volume of […] per well. The test compounds were dissolved and diluted in 100% DMSO. For the assays, 30 nL of DMSO or compound solution were added per well, followed by the addition of 3 μL protein solution (80 nM protein in 1× assay buffer).

The mark [5] stands for this setting: concentration at which 50% of reference probe Compound HH is displaced, 40 nM protein, 5 nM probe, read-out: CRBN AC50 [μM] Format 2a.
Setting [6] is: concentration at which 50% of reference probe Compound HH is displaced, quadruplicate, read-out: CRBN AC50 [μM] Format 2b.

Molecules are shown by their SMILES. A value given as a limit tells only on which side of the number the result lay.

T2 sequence (Q06187 whole entry): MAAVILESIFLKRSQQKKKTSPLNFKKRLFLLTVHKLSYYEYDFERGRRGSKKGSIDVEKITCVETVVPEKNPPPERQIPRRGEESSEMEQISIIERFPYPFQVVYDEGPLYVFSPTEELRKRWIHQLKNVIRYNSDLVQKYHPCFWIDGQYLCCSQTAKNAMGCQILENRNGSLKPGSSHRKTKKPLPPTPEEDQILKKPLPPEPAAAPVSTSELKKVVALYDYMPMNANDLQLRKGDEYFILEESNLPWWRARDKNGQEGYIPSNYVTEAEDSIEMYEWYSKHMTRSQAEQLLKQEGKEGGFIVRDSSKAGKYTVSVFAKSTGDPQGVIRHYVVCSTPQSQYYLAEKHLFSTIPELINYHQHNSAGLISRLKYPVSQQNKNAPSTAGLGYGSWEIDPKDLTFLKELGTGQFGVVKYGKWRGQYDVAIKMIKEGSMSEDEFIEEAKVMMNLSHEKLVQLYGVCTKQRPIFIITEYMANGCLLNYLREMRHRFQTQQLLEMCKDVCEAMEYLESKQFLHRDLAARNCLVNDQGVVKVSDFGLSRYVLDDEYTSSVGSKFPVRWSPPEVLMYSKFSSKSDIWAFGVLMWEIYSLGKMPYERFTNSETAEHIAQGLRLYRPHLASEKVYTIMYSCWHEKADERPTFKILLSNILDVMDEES
T1 sequence (Q96SW2 whole entry): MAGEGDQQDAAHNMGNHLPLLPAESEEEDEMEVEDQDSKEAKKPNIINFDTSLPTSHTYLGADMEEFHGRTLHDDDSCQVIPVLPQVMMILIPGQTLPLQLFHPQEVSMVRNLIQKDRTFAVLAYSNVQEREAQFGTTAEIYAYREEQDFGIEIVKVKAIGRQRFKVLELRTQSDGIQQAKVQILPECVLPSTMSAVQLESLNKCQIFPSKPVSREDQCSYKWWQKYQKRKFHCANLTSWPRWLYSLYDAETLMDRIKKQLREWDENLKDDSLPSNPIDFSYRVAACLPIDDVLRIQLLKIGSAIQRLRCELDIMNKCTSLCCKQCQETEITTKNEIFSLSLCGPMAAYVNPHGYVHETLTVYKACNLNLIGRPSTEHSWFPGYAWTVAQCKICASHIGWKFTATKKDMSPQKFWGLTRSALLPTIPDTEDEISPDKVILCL

With `COc1cc(C(=O)NCCCCN2CCN(Cc3ccc(-c4cc5c(-c6cc(F)cc(NC(=O)c7ccc(C(C)(C)O)cc7F)c6C)ncnc5[nH]4)cc3)CC2)ccc1N1CCC(=O)NC1=O` [Compound 25, N-(3-(6-(4-((4-(4-(4-(2,4-dioxotetrahydropyrimidin-1(2H)-yl)-3-methoxybenzamido)butyl)piperazin-1-yl)methyl)phenyl)-7H-pyrrolo[2,3-d]pyrimidin-4-yl)-5-fluoro-2-methylphenyl)-2-fluoro-4-(2-hydroxypropan-2-yl)benzamide], the AC50 in assay [1] was found to be 4.47 µM. Further, in assay [2], the “BTK degradation Amax” value came to 51.1% and the DC50 is above 3.33 µM.
For `Cc1c(NC(=O)c2ccc(C(C)(C)O)cc2F)cc(F)cc1-c1ncnc2[nH]c(-c3ccc(CN4CCN(CCNC(=O)COc5ccc(N6CCC(=O)NC6=O)cc5)CC4)cc3)cc12` [Compound 26, N-(3-(6-(4-((4-(2-(2-(4-(2,4-Dioxotetrahydropyrimidin-1(2H)-yl)phenoxy)acetamido)ethyl)piperazin-1-yl)methyl)phenyl)-7H-pyrrolo[2,3-d]pyrimidin-4-yl)-5-fluoro-2-methylphenyl)-2-fluoro-4-(2-hydroxypropan-2-yl)benzamide] the same measures were 3.92 µM, 10.6% and 0.0112 µM.
With `Cc1c(NC(=O)c2ccc(C(C)(C)O)cc2F)cc(F)cc1-c1ncnc2[nH]c(C3=CCN(C(=O)CCCCN4CCC(Oc5ccc(N6CCC(=O)NC6=O)cc5)CC4)CC3)cc12` [Compound 27, N-(3-(6-(1-(5-(4-(4-(2,4-Dioxotetrahydropyrimidin-1(2H)-yl)phenoxy)piperidin-1-yl)pentanoyl)-1,2,3,6-tetrahydropyridin-4-yl)-7H-pyrrolo[2,3-d]pyrimidin-4-yl)-5-fluoro-2-methylphenyl)-2-fluoro-4-(2-hydroxypropan-2-yl)benzamide], the AC50 in assay [1] is 1.94 µM. Moreover, in assay [2], the “BTK degradation Amax” value was 21.7% and the DC50 was found to be 0.022 µM.
For `Cc1c(NC(=O)c2ccc(C(C)(C)O)cc2F)cc(F)cc1-c1ncnc2[nH]c(-c3ccc(CNCCN4CCC(Oc5ccc(N6CCC(=O)NC6=O)cc5)CC4)cc3)cc12` [Compound 29, N-(3-(6-(4-(((2-(4-(4-(2,4-dioxotetrahydropyrimidin-1(2H)-yl)phenoxy)piperidin-1-yl)ethyl)amino)methyl)phenyl)-7H-pyrrolo[2,3-d]pyrimidin-4-yl)-5-fluoro-2-methylphenyl)-2-fluoro-4-(2-hydroxypropan-2-yl)benzamide] the same measures were 2.39 µM, 40.5% and 0.0402 µM.
For `Cc1c(NC(=O)c2ccc(C(C)(C)O)cc2F)cc(F)cc1-c1ncnc2[nH]c(-c3ccc(CN4CCC(OC5CCN(CCn6cccc(CN7CCC(=O)NC7=O)c6=O)CC5)CC4)cc3)cc12` [Compound 33, N-(3-(6-(4-((4-((1-(2-(3-((2,4-dioxotetrahydropyrimidin-1(2H)-yl)methyl)-2-oxopyridin-1(2H)-yl)ethyl)piperidin-4-yl)oxy)piperidin-1-yl)methyl)phenyl)-7H-pyrrolo[2,3-d]pyrimidin-4-yl)-5-fluoro-2-methylphenyl)-2-fluoro-4-(2-hydroxypropan-2-yl)benzamide] the same measures were 0.915 µM, 6.1% and 0.0021 µM.
For `Cc1c(NC(=O)c2ccc(C(C)(C)O)cc2F)cc(F)cc1-c1ncnc2[nH]c(-c3ccc(CNCCCCOCCn4cccc(CN5CCC(=O)NC5=O)c4=O)cc3)cc12` [Compound 34, N-(3-(6-(4-(((4-(2-(3-((2,4-dioxotetrahydropyrimidin-1(2H)-yl)methyl)-2-oxopyridin-1(2H)-yl)ethoxy)butyl)amino)methyl)phenyl)-7H-pyrrolo[2,3-d]pyrimidin-4-yl)-5-fluoro-2-methylphenyl)-2-fluoro-4-(2-hydroxypropan-2-yl)benzamide] the same measures were 0.736 µM, 40.3% and 0.642 µM.
`Cc1c(NC(=O)N2C[C@H](CC(C)C)[C@@H](O)C2)cc(F)cc1-c1ncnc2[nH]c(-c3ccc(CN4CCC(OC5CCN(CCn6cccc(CN7CCC(=O)NC7=O)c6=O)CC5)CC4)cc3)cc12` [Compound 35, (3R,4S)—N-(3-(6-(4-((4-((1-(2-(3-((2,4-dioxotetrahydropyrimidin-1(2H)-yl)methyl)-2-oxopyridin-1(2H)-yl)ethyl)piperidin-4-yl)oxy)piperidin-1-yl)methyl)phenyl)-7H-pyrrolo[2,3-d]pyrimidin-4-yl)-5-fluoro-2-methylphenyl)-3-hydroxy-4-isobutylpyrrolidine-1-carboxamide]: the AC50 in assay [1] was 0.742 µM. In assay [2], the “BTK degradation Amax” value was found to be 6.6% and half-maximal degradation (DC50) was put at 0.0021 µM.
Take `CCOC(=O)Cc1cncc(N2CCC(=O)NC2=O)c1` [ILB-71, Ethyl 2-(5-(2,4-dioxotetrahydropyrimidin-1(2H)-yl)pyridin-3-yl)acetate]: the AC50 worked out at 6.01 µM in assay [3] (setting [5]) and 8 µM in assay [4] (setting [6]).
On the same counts, the results for `COC(=O)c1cncc(N2CCC(=O)NC2=O)c1` [ILB-72, Methyl 5-(2,4-dioxotetrahydropyrimidin-1(2H)-yl)nicotinate] are 29.4 µM and 18 µM.
As for `O=C1CCN(c2cncc(Cl)c2)C(=O)N1` [ILB-73, 1-(5-Chloropyridin-3-yl)dihydropyrimidine-2,4(1H,3H)-dione], the AC50 in assay [3] was 15 µM; in assay [4], 11.9 µM.
On to `C=C(C)c1cncc(N2CCC(=O)NC2=O)c1` [ILB-74, 1-(5-(Prop-1-en-2-yl)pyridin-3-yl)dihydropyrimidine-2,4(1H,3H)-dione], for which the AC50 in assay [3] (setting [5]) is 6.28 µM; in assay [4] (setting [6]) it was 4.61 µM.
`CC(O)c1ccc(N2CCC(=O)NC2=O)cn1` (stereo not shown) [ILB-75, 1-(6-(1-Hydroxyethyl)pyridin-3-yl)dihydropyrimidine-2,4(1H,3H)-dione]: the AC50 is above 50 µM in assay [3] and 28.7 µM in assay [4]. The “CRBN Amax* (% at 50 μM) Format 2a” value in assay [3] (greatest effect as % displacement of the reference probe at the highest concentration tested (50 μM), given where AC50 >50 μM, 45 min) came to 40%.
As to `O=C1CCN(c2cncc(Br)c2)C(=O)N1` [ILB-76, 1-(5-Bromopyridin-3-yl)dihydropyrimidine-2,4(1H,3H)-dione], the values for the AC50 in assay [3] (setting [5]) and in assay [4] (setting [6]) were 8.09 µM and 15.3 µM, respectively.
On the same counts, the results for `O=C1CCN(c2cncc(O)c2)C(=O)N1` [ILB-77, 1-(5-Hydroxypyridin-3-yl)dihydropyrimidine-2,4(1H,3H)-dione] are 0.5 µM and 0.3 µM.
For `CCOC(=O)c1cncc(N2CCC(=O)NC2=O)c1` [ILB-78, Ethyl 5-(2,4-dioxotetrahydropyrimidin-1(2H)-yl)nicotinate], the concentration at half-maximal activity (AC50) in assay [3] (setting [5]) was 5.72 µM; in assay [4] (setting [6]) it was 5.07 µM.
Take `O=C1CCN(c2cn[nH]c2)C(=O)N1` [ILB-79, 1-(1H-Pyrazol-4-yl)dihydropyrimidine-2,4(1H,3H)-dione]: the AC50 amounted to 7.15 µM in assay [3] and 6.78 µM in assay [4].

Values taken from patent publication US20220387602A1, “BIFUNCTIONAL DEGRADERS AND THEIR METHODS OF USE” (NOVARTIS AG, priority 2019, published 2022).
